# Experiments:
# Assay type in all cases: in vivo
# [1] = system: barnyardgrass (Echinochloa crus-galli); assay: Test A preemergence, barnyardgrass; conditions: 0 to 100 scale, 0 no effect, 100 complete control
# How it was run: (§1)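 Compounds are applied in a non-phytotoxic solvent with surfactant, either preemergence as a directed soil spray or postemergence at the one- to two-leaf stage. Plants grow in loam–sand soil in a greenhouse, and injury is scored visually against untreated controls after about 10 d (0–100 scale).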
# [2] = system: kochia (Kochia scoparia); assay: Test A preemergence, kochia; conditions: 0 to 100 scale, 0 no effect, 100 complete control
# How it was run: as §1
# [3] = system: ragweed (common ragweed, Ambrosia elatior); assay: Test A preemergence, ragweed; conditions: 0 to 100 scale, 0 no effect, 100 complete control
# How it was run: as §1
# [4] = system: ryegrass, Italian (Italian ryegrass, Lolium multiflorum); assay: Test A preemergence, ryegrass, Italian; conditions: 0 to 100 scale, 0 no effect, 100 complete control
# How it was run: as §1
# [5] = system: foxtail, giant (giant foxtail, Setaria faberii); assay: Test A preemergence, foxtail, giant; conditions: 0 to 100 scale, 0 no effect, 100 complete control
# How it was run: as §1
# [6] = system: pigweed (Amaranthus retroflexus); assay: Test A preemergence, pigweed; conditions: 0 to 100 scale, 0 no effect, 100 complete control
# How it was run: as §1
# [7] = system: barnyardgrass (Echinochloa crus-galli); assay: Test A postemergence, barnyardgrass; conditions: 0 to 100 scale, 0 no effect, 100 complete control
# How it was run: as §1
# [8] = system: kochia (Kochia scoparia); assay: Test A postemergence, kochia; conditions: 0 to 100 scale, 0 no effect, 100 complete control
# How it was run: as §1
# [9] = system: ragweed (common ragweed, Ambrosia elatior); assay: Test A postemergence, ragweed; conditions: 0 to 100 scale, 0 no effect, 100 complete control
# How it was run: as §1
# [10] = system: ryegrass, Italian (Italian ryegrass, Lolium multiflorum); assay: Test A postemergence, ryegrass, Italian; conditions: 0 to 100 scale, 0 no effect, 100 complete control
# How it was run: as §1
# [11] = system: foxtail, giant (giant foxtail, Setaria faberii); assay: Test A postemergence, foxtail, giant; conditions: 0 to 100 scale, 0 no effect, 100 complete control
# How it was run: as §1
# [12] = system: wheat (Triticum aestivum); assay: Test A postemergence, wheat; conditions: 0 to 100 scale, 0 no effect, 100 complete control
# How it was run: as §1
# [13] = system: corn (Zea mays); assay: Test A postemergence, corn; conditions: 0 to 100 scale, 0 no effect, 100 complete control
# How it was run: as §1
# [14] = system: pigweed (Amaranthus retroflexus); assay: Test A postemergence, pigweed; conditions: 0 to 100 scale, 0 no effect, 100 complete control
# How it was run: as §1
# [15] = system: blackgrass (Alopecurus myosuroides); assay: Test A postemergence, blackgrass; conditions: 0 to 100 scale, 0 no effect, 100 complete control
# How it was run: as §1
# [16] = system: galium (catchweed bedstraw, Galium aparine); assay: Test A postemergence, galium; conditions: 0 to 100 scale, 0 no effect, 100 complete control
# How it was run: as §1
# [17] = system: barnyardgrass (Echinochloa crus-galli); assay: Test B flooded paddy test, barnyardgrass; conditions: Flood, 250 g ai/ha; scale 0 to 100 (0 no effect, 100 complete control); 13 to 15 d
# How it was run: (§2)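 Ratings use a 0-100 visual scale, where 100 is complete control, and compare treated plants with controls after 13 to 15 d of greenhouse growth. Compound went straight into paddy water kept 3 cm over the soil surface, applied to seedlings at the 2-leaf stage.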
# [18] = system: ducksalad (Heteranthera limosa); assay: Test B flooded paddy test, ducksalad; conditions: Flood, 250 g ai/ha; scale 0 to 100 (0 no effect, 100 complete control); 13 to 15 d
# How it was run: as §2
# [19] = system: rice (Oryza sativa); assay: Test B flooded paddy test, rice; conditions: Flood, 250 g ai/ha; scale 0 to 100 (0 no effect, 100 complete control); 13 to 15 d
# How it was run: as §2
# [20] = system: sedge, umbrella (small-flower umbrella sedge, Cyperus difformis); assay: Test B flooded paddy test, sedge, umbrella; conditions: Flood, 250 g ai/ha; scale 0 to 100 (0 no effect, 100 complete control); 13 to 15 d
# How it was run: as §2
SMILES,"Plant response rating, Barnyardgrass ([1]; 31 g ai/ha)","Plant response rating, Barnyardgrass ([1]; 125 g ai/ha)","Plant response rating, Kochia ([2]; 31 g ai/ha)","Plant response rating, Kochia ([2]; 125 g ai/ha)","Plant response rating, Ragweed ([3]; 31 g ai/ha)","Plant response rating, Ragweed ([3]; 125 g ai/ha)","Plant response rating, Ryegrass, Italian ([4]; 31 g ai/ha)","Plant response rating, Ryegrass, Italian ([4]; 125 g ai/ha)","Plant response rating, Foxtail, Giant ([5]; 31 g ai/ha)","Plant response rating, Foxtail, Giant ([5]; 125 g ai/ha)","Plant response rating, Pigweed ([6]; 31 g ai/ha)","Plant response rating, Pigweed ([6]; 125 g ai/ha)","Plant response rating, Barnyardgrass ([7]; 31 g ai/ha)","Plant response rating, Barnyardgrass ([7]; 125 g ai/ha)","Plant response rating, Kochia ([8]; 31 g ai/ha)","Plant response rating, Kochia ([8]; 125 g ai/ha)","Plant response rating, Ragweed ([9]; 31 g ai/ha)","Plant response rating, Ragweed ([9]; 125 g ai/ha)","Plant response rating, Ryegrass, Italian ([10]; 31 g ai/ha)","Plant response rating, Ryegrass, Italian ([10]; 125 g ai/ha)",also measured
CN1CC(c2ccc(C(F)(F)F)cc2)N(C(=O)Nc2ccccc2F)C1=O (stereo not drawn) [Compound 13],0,0,0,0,0,0,0,0,0,0,0,0,0,0,0,0,0,0,0,0,"Plant response rating, Foxtail, Giant ([11]; 31 g ai/ha): 0; Plant response rating, Foxtail, Giant ([11]; 125 g ai/ha): 0; Plant response rating, Wheat ([12]; 31 g ai/ha): 0; Plant response rating, Wheat ([12]; 125 g ai/ha): 0; Plant response rating, Corn ([13]; 31 g ai/ha): 0; Plant response rating, Corn ([13]; 125 g ai/ha): 0; Plant response rating, Pigweed ([14]; 31 g ai/ha): 0; Plant response rating, Pigweed ([14]; 125 g ai/ha): 0; Plant response rating, Blackgrass ([15]; 31 g ai/ha): 0; Plant response rating, Blackgrass ([15]; 125 g ai/ha): 0; Plant response rating, Galium ([16]; 31 g ai/ha): 0; Plant response rating, Galium ([16]; 125 g ai/ha): 0; Plant response rating, Barnyardgrass [17]: 10; Plant response rating, Ducksalad [18]: 70; Plant response rating, Rice [19]: 0; Plant response rating, Sedge, Umbrella [20]: 0"
CN1CC(c2ccc(C(F)(F)F)cc2)N(C(=O)Nc2ccc(F)cc2F)C1=O (stereo not drawn) [Compound 15],0,0,0,0,0,0,0,0,0,0,0,0,0,0,0,0,0,0,0,0,"Plant response rating, Foxtail, Giant ([11]; 31 g ai/ha): 0; Plant response rating, Foxtail, Giant ([11]; 125 g ai/ha): 0; Plant response rating, Wheat ([12]; 31 g ai/ha): 0; Plant response rating, Wheat ([12]; 125 g ai/ha): 0; Plant response rating, Corn ([13]; 31 g ai/ha): 0; Plant response rating, Corn ([13]; 125 g ai/ha): 0; Plant response rating, Pigweed ([14]; 31 g ai/ha): 0; Plant response rating, Pigweed ([14]; 125 g ai/ha): 0; Plant response rating, Blackgrass ([15]; 31 g ai/ha): 0; Plant response rating, Blackgrass ([15]; 125 g ai/ha): 0; Plant response rating, Galium ([16]; 31 g ai/ha): 0; Plant response rating, Galium ([16]; 125 g ai/ha): 0; Plant response rating, Barnyardgrass [17]: 10; Plant response rating, Ducksalad [18]: 60; Plant response rating, Rice [19]: 0; Plant response rating, Sedge, Umbrella [20]: 0"

# — patent publication US11178873B2, “Cyclic N-carboxamide compounds useful as herbicides” (FMC CORPORATION, priority 2015, dated 2021)
